Data as given in ChEMBL document CHEMBL4017466, “Efficient synthesis of a multi-substituted diphenylmethane skeleton as a steroid mimetic” (Bioorg Med Chem Lett, 2017).
Activity calls are given as the source filed them. No cut-off for these calls is given here.

Legend:
[1] = target: T1, Estrogen receptor (Homo sapiens, UniProt P03372); experiment: Antagonist activity at CMX-GAL4N fused human ERalpha expressed in HEK293 cells assessed as reduction in E2 induced response by luciferase reporter gene assay; assay type: cell-based
T1 sequence (P03372 whole entry): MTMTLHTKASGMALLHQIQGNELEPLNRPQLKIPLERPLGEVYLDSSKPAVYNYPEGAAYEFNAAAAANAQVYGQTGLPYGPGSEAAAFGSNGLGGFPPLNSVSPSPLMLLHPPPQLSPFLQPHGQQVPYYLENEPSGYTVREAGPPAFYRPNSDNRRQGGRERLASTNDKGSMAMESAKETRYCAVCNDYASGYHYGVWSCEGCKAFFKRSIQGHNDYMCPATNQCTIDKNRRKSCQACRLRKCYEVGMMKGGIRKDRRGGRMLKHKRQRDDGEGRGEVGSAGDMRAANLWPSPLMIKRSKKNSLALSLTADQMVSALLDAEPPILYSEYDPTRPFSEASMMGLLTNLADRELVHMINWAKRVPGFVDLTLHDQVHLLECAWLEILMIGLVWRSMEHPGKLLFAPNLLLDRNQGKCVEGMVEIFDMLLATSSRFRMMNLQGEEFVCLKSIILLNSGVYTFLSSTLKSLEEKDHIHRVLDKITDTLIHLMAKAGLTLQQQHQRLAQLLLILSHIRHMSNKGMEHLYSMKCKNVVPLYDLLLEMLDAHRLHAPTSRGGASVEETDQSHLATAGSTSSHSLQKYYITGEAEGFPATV

[2] = target: T2, Estrogen receptor (Homo sapiens) (UniProt P03372); experiment: Antagonist activity at CMX-GAL4N fused human ERalpha expressed in HEK293 cells assessed as reduction in E2 induced response at 10 to 10^4 nM by luciferase reporter gene assay; assay type: cell-based
T2 sequence (whole entry): T1 sequence (P03372 whole entry)

| SMILES | IC50 [1] | Activity [2] |
| --- | --- | --- |
| CCCC(CCC)(c1ccc(O)c(C)c1)c1ccc(OC(C)=O)c(OC(C)=O)c1 | – | Active |
| CCCC(CCC)(c1ccc(O)cc1)c1ccc(O)c(O)c1 | 0.0632 µM | – |
| CCCC(CCC)(c1ccc(O)c(C)c1)c1ccc(OCCN(C)C)c(C)c1 | 0.134 µM | – |
| CCCC(CCC)(c1ccc(O)c(C)c1)c1cc(C)c(O)c(O)c1 | 0.271 µM | – |
| CCCC(CCC)(c1ccc(OCCN(C)C)c(C)c1)c1ccc(O)c(O)c1 | 0.225 µM | – |
| CCC(CC)(c1ccc(O)c(C)c1)c1ccc(O)c(O)c1 | 0.664 µM | – |

More lines, now with the values ahead:

| IC50 [1] | Activity [2] | SMILES |
| --- | --- | --- |
| 0.158 µM | – | CCCC(CCC)(c1ccc(O)c(C)c1)c1ccc(O)c(O)c1 |
| 0.00222 µM | – | CCCC(CCC)(c1ccc(O)c(C)c1)c1ccc(O)c(C)c1 |
| 0.154 µM | – | CCC(CC)(c1ccc(O)cc1)c1ccc(O)c(O)c1 |
